In patent US20030114445A1, “N3-substituted 6-anilinopyrimidines and methods to treat-Gram-positive bacterial and mycoplasmal infections” (priority 2001, published 2003):
≈ marks a conversion by molar mass, not a printed value. Where two headings read alike, the source gives them in different places.

Legend:
S. aureus (Smith strain) [1] = assay: Efficacy, sc dosing of mice infected ip with S. aureus; format: in vivo; settings: Compound 59 given sc, relative to vehicle control, FIG. 3
Excerpt: Compound 59 was give by the sc route to mice infected by the ip route with S. aureus (Smith strain).

S. aureus (Smith strain) [2] = assay: Efficacy, ip dosing of mice infected with S. aureus; format: in vivo; settings: suspensions in saline, 5 animals, FIG. 2
Excerpt: Compounds 12, 19, 26, and 29 were given by the intraperitoneal (ip) route as suspensions in saline to mice previously infected with S. aureus (Smith strain). Vancomycin was used as a positive drug control and saline was used as a negative vehicle control.

B.subtilis pol IIIC = B.subtilis pol IIIC (Bacillus subtilis, UniProt P13267); assay: biochemical
Procedure, shortened: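 Purified pol IIIC incorporating [3H]-dTMP into nicked calf-thymus DNA with Mg2+, DTT and glycerol, 10 min at 30 °C; acid-insoluble radioactivity counted, in triplicate.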

Water solubility = format: physicochemical; settings: 25° C. stated for Compound 35
Excerpt: The compounds described herein have increased water solubility; some of the compounds can form salts, such as with inorganic or organic acids or with alkali metal bases, thus greatly increasing their solubilities. […] The improved water solubilities are a distinct advantage in formulation and in dosing of animals for testing, and for ultimate therapeutic use in humans.

S.aureus (Smith) = assay: Inhibition of bacterial growth on agar plates (MIC); format: cell-based; settings: Staphylococcus aureus, 37° C., 24 hours
Procedure, shortened: (§1)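 Agar dilution: compounds from DMSO or water stocks mixed into medium with 1.3% agar at 60° C; 500-1000 CFU plated, incubated 37° C for 24 hours. MIC is the lowest concentration with no colony formation.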

E. fecalis = assay: as above; format: cell-based; settings: 37° C., 24 hours
Procedure, shortened: as §1

B. subtilis = assay: as above; format: cell-based; settings: Bacillus subtilis, 37° C., 24 hours
Procedure, shortened: as §1

E. fecium = assay: as above; format: cell-based; settings: 37° C., 24 hours
Procedure, shortened: as §1

[3] = Pharmacokinetics in mice (plasma concentration by HPLC); format: in vivo; settings: saline solution
Excerpt: Compound 59 was given to mice in simple saline solutions by various routes—subcutaneous (sc), intravenous (iv), and orally (po). High performance liquid chromatography (HPLC) on a reverse phase C 18 column was used to monitor the concentration of the compound in animal plasma, and the results were plotted as a function of time, as shown in FIG. 1.
Tmax, time to peak concentration; Cmax, peak concentration; T½, half-life; AUC(0-t), area under the curve, from 0 to time t; AUC(0-60), area under the curve, from 0 to 60 minutes; Vd, volume of distribution; Cl, clearance.

B.subtilis pol IIIC, sequence (P13267 whole entry): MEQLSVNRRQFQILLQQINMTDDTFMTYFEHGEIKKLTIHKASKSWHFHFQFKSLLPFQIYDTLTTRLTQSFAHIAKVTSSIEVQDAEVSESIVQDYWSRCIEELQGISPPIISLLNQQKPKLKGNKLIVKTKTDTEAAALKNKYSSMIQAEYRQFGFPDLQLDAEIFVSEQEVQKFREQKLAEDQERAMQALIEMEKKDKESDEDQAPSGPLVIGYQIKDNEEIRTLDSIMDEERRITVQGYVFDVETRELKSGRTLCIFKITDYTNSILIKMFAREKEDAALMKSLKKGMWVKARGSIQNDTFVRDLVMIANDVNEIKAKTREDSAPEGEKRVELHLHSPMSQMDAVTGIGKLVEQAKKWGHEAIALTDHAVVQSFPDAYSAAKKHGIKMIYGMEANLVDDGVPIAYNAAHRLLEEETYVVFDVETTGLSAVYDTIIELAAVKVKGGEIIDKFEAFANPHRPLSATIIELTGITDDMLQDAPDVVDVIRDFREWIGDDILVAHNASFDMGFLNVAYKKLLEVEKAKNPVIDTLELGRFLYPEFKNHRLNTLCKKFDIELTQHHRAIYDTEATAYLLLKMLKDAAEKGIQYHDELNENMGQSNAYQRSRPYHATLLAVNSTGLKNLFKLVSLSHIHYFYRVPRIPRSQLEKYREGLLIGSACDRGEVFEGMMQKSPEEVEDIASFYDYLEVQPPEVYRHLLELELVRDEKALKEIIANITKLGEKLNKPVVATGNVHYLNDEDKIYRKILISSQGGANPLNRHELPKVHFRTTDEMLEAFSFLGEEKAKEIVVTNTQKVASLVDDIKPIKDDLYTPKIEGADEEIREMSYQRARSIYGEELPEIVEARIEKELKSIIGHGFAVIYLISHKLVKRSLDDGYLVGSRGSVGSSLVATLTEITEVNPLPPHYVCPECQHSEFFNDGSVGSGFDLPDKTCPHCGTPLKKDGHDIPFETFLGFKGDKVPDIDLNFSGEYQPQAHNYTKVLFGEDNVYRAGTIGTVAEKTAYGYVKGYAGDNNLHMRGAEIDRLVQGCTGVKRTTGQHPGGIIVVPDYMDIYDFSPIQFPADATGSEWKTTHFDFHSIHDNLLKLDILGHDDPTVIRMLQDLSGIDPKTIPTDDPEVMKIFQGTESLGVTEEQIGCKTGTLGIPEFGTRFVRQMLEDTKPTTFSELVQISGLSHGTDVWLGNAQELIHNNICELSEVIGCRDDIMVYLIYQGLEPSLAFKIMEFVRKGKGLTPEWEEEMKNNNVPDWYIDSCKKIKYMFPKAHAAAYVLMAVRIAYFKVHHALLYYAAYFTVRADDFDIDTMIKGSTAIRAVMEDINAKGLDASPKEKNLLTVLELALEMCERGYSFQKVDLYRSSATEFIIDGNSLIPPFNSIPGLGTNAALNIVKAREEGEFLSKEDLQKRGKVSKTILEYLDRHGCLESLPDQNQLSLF

SMILES: CN[C@H](CC(C)C)C(=O)N[C@H]1C(=O)N[C@@H](CC(N)=O)C(=O)N[C@H]2C(=O)N[C@H]3C(=O)N[C@H](C(=O)N[C@H](C(=O)O)c4cc(O)cc(O)c4-c4cc3ccc4O)[C@H](O)c3ccc(c(Cl)c3)Oc3cc2cc(c3O[C@@H]2O[C@H](CO)[C@@H](O)[C@H](O)[C@H]2O[C@H]2C[C@](C)(N)[C@H](O)[C@H](C)O2)Oc2ccc(cc2Cl)[C@H]1O [Vancomycin, reference compound]
- survival of infected mice (S. aureus (Smith strain) [1]): protected the animals from this infection
- animals protected (S. aureus (Smith strain) [2]): protected all animals

SMILES: CCc1cc(Nc2cc(=O)n(CCCCN3CCOCC3)c(=O)[nH]2)ccc1C [Compound 35, 3-[4-(N-morpholino)butyl]-6-(3-ethyl-4-methylanilino)uracil]
- Ki (B.subtilis pol IIIC; truncated assay, apparent inhibitor constant, read-out: K1 B.subtilis pol IIIC): 48 nM
- solubility (Water solubility): < 1 mg/mL
- MIC (S.aureus (Smith)): 5 µg/mL (≈ 12.9 µM)
- MIC (E. fecalis): 5 µg/mL (≈ 12.9 µM)
- MIC (B. subtilis): 2.5 µg/mL (≈ 6.47 µM)
- MIC (E. fecium): 2.5 µg/mL (≈ 6.47 µM)

SMILES: CCc1cc(Nc2cc(=O)n(CCCCN3CCOCC3)c(=O)[nH]2)ccc1C.Cl [Compound 59, 3-[4-(N-morpholino)butyl]-6-(3-ethyl-4-methylanilino)uracil hydrochloride]
- solubility (Water solubility): > 60 mg/mL
- survival of infected mice (S. aureus (Smith strain) [1]): prolonged the survival time of mice relative to vehicle control
- AUC(0-t) ([3]; mouse, plasma, iv, 20 mg/kg, iv, 20 mg/kg, 0-120, read-out: AUC(0-t) (converted)): 3900 ng·h/mL
- AUC(0-t) ([3]; mouse, plasma, iv, 20 mg/kg, iv, 20 mg/kg, read-out: AUC(0-60) (converted)): 3400 ng·h/mL
- Cmax ([3]; mouse, plasma, iv, 20 mg/kg): 27400 ng/mL
- clearance ([3]; mouse, plasma, iv, 20 mg/kg): 77 mL/min/kg
- half-life ([3]; mouse, plasma, iv, 20 mg/kg): 39 min
- Tmax ([3]; mouse, plasma, iv, 20 mg/kg, ncm fit): 0 min
- Vd ([3]; mouse, plasma, iv, 20 mg/kg, read-out: Vd): 4.3 L/kg
- bioavailability ([3]; mouse, plasma, po, read-out: oral bioavailability (absorbed from the po route)): ~50%
- Cmax ([3]; mouse, plasma, sc, 20 mg/kg): 4600 ng/mL
- Tmax ([3]; mouse, plasma, sc, 20 mg/kg): 5 min
- half-life ([3]; mouse, plasma, sc, 20 mg/kg): 149 min
- AUC(0-t) ([3]; mouse, plasma, sc, 20 mg/kg, sc, 20 mg/kg, (0-180), read-out: AUC(0-t) (converted)): 6770 ng·h/mL
- AUC(0-t) ([3]; mouse, plasma, sc, 20 mg/kg, sc, 20 mg/kg, read-out: AUC(0-60) (converted)): 3330 ng·h/mL
- Cmax ([3]; mouse, plasma, sc, 200 mg/kg): 15000 ng/mL
- Tmax ([3]; mouse, plasma, sc, 200 mg/kg): 30 min
- half-life ([3]; mouse, plasma, sc, 200 mg/kg): 132 min
- AUC(0-t) ([3]; mouse, plasma, sc, 200 mg/kg, sc, 200 mg/kg, (0-180), read-out: AUC(0-t) (converted)): 26900 ng·h/mL
- AUC(0-t) ([3]; mouse, plasma, sc, 200 mg/kg, sc, 200 mg/kg, read-out: AUC(0-60) (converted)): 10600 ng·h/mL
- Cmax ([3]; mouse, plasma, sc, 400 mg/kg): 24100 ng/mL
- Tmax ([3]; mouse, plasma, sc, 400 mg/kg): 30 min
- half-life ([3]; mouse, plasma, sc, 400 mg/kg): 373 min
- AUC(0-t) ([3]; mouse, plasma, sc, 400 mg/kg, sc, 400 mg/kg, (0-360), read-out: AUC(0-t) (converted)): 75000 ng·h/mL
- AUC(0-t) ([3]; mouse, plasma, sc, 400 mg/kg, sc, 400 mg/kg, read-out: AUC(0-60) (converted)): 19800 ng·h/mL
- Cl ([3]; sc, 20 mg/kg): 30.2 mL/min/kg
- Vd ([3]; sc, 20 mg/kg): 6.5 L/kg
- absorption by the sc route ([3]; sc): completely absorbed

SMILES: CCc1cc(Nc2cc(=O)n(CCOCCO)c(=O)[nH]2)ccc1C [Compound 29, 3-[2-(2-Hydroxyethoxy)ethyl]-6-(3-ethyl-4-methylanilino)uracil]
- Ki (B.subtilis pol IIIC): 125 nM
- MIC (S.aureus (Smith)): 5 µg/mL (≈ 15 µM)
- MIC (E. fecalis): 5 µg/mL (≈ 15 µM)
- MIC (B. subtilis): < 1.25 µg/mL
- MIC (E. fecium): 5 µg/mL (≈ 15 µM)
- animals protected (S. aureus (Smith strain) [2]): 4 of the 5
